Test results reported in US5126359A, “Substituted bisazoles and their use as medicaments” (Bayer Aktiengesellschaft, priority 1988, dated 1992).
Values after ≈ are worked out from the molar mass of the structure shown.

Legend:
Torulopsis glabrata = experiment: Antimycotic in vitro activity, serial dilution test (MIC), Torulopsis glabrata; format: cell-based; conditions: Nakaseomyces glabratus; Meat extract-dextrose broth; 28° to 37° C.; 24 to 48 hours
Description: (§1) The in vitro tests were carried out in a serial dilution test using inocula of microorganisms of on average 5×10^3 to 10^4 microorganisms/ml of substrate. The nutrient medium used was (b) for yeasts: Meat extract-dextrose broth. The incubation temperature was 28° to 37° C., and the incubation period was 24 to 48 hours with yeasts and 96 hours with Dermatophytes and hyphomycetes.

Aspergillus fumigatus = experiment: Antimycotic in vitro activity, serial dilution test (MIC), Aspergillus fumigatus; format: cell-based; conditions: Kimmig's test medium, 28° to 37° C., 96 hours
Description: (§2) The in vitro tests were carried out in a serial dilution test using inocula of microorganisms of on average 5×10^3 to 10^4 microorganisms/ml of substrate. The nutrient medium used was
(§3) (a) for dermatophytes and Hyphomycetes: Kimmig's test medium
(§4) The incubation temperature was 28° to 37° C., and the incubation period was 24 to 48 hours with yeasts and 96 hours with Dermatophytes and hyphomycetes.

Candida albicans = experiment: Antimycotic in vitro activity, serial dilution test (MIC), Candida albicans; format: cell-based; conditions: Meat extract-dextrose broth, 28° to 37° C., 24 to 48 hours
Description: as §1

[1] = tested on: dermatophytes, Hyphomycetes and yeasts; experiment: Antimycotic in vitro activity, serial dilution test, overall comparison with the prior art; format: cell-based; conditions: in words
Description: as §2, §3
Meat extract-dextrose broth.
as §4

[2] = tested on: Trichophyton mentagrophytes; experiment: Antimicrobial in vivo activity (topical) in the experimental guinea-pig trichophytosis model; design: species or system guinea-pig (Pirbright white); conditions: 1 × daily, 0.1% strength solution, from 3rd day
Description: White guinea-pigs of the Pirbright white strain are infected on the shaven, non-scarified back with a micro- and macroconidia suspension of Trichophyton mentagrophytes. The infected animals were treated topically 1 × daily with a 0.1% strength solution of the preparation according to the invention (in dimethyl sulphoxide: glycerol=1.4) beginning with the 3rd day. In untreated animals, the typical picture of a dermatophytosis with reddening, scaling and hair loss up to total integumental defect of the infection site developed within 12 days p.i.

Trichophyton mentagr. = experiment: Antimycotic in vitro activity, serial dilution test (MIC), Trichophyton mentagrophytes; format: cell-based; conditions: Kimmig's test medium, 28° to 37° C., 96 hours
Description: as §2, §3, §4

Candida = experiment: Antimycotic in vivo activity (oral) in mouse candidosis; design: species or system mouse (SPF-CF1); conditions: 10 to 100 mg/kg; for action in mouse candidosis, in words / Action (oral) in mouse candidosis: 6th day p.i.; for Action (oral) in mouse candidosis: one hour before and seven hours after infection; for surviving on the 6th day p.i.: untreated control about 5% survival
Description: Mice of the SPF-CF1 type were infected intravenously with 1-2×10^6 exponentially growing Candida cells which are suspended in physiological saline solution. One hour before and seven hours after infection, the animals are treated orally in each case with 10 to 100 mg/kg of body weight of the preparation. Untreated animals died on the 3rd to 6th day post-infection. The survival rate on the 6th day post-infection was about 5% in untreated control animals.

Row | Compound | MIC (Torulopsis glabrata) | MIC (Aspergillus fumigatus) | MIC (Candida albicans) | MIC (Trichophyton mentagr.) | antimycotic action compared with compounds (A) and (B) known from the prior art [1] | action in guinea-pig trichophytosis, in words [2] | action in mouse candidosis, in words (Candida) | Action (oral) in mouse candidosis (Candida) | surviving on the 6th day p.i. (Candida)
1 | Cc1ccc(C(O)(Cn2cncn2)C2(n3cnc(Cl)n3)CC2)cc1 (stereo not shown) [Example 8, 1-[1-(3-Chloro-1,2,4-triazol-1-yl)-cyclopropyl]-1-(4-methylphenyl)-2-(1,2,4-triazol-1-yl)-ethan-1-ol] | > 64 µg/mL | 16 µg/mL (≈ 46.4 µM) | 16 µg/mL (≈ 46.4 µM) | 4 µg/mL (≈ 11.6 µM) | better antimycotic action than the compounds (A) and (B) | – | – | – | –
2 | OC(Cn1cncn1)(Cn1cncn1)c1cccc(Cl)c1 [(A), reference compound] | > 64 µg/mL | > 64 µg/mL | > 64 µg/mL | 32 µg/mL (≈ 105 µM) | – | – | – | – | –
3 | OC(Cn1cncn1)(c1ccccc1)C1(n2cnc(Cl)n2)CC1 (stereo not shown) [Example 6, 1-[1-(3-Chloro-1,2,4-triazol-1-yl)-cyclopropyl]-1-phenyl-2-(1,2,4-triazol-1-yl)-ethan-1-ol] | > 64 µg/mL | 16 µg/mL (≈ 48.4 µM) | 32 µg/mL (≈ 96.7 µM) | 8 µg/mL (≈ 24.2 µM) | better antimycotic action than the compounds (A) and (B) | good action | good to very good action | +++++ (very good action = 90% surviving on the 6th day p.i.) | > 80%
4 | OC(Cn1cncn1)(c1ccc(F)cc1)C1(n2cnc(Cl)n2)CC1 (stereo not shown) [Example 7, 1-[1-(3-Chloro-1,2,4-triazol-1-yl)-cyclopropyl]-1-(4-fluorophenyl)-2-(1,2,4-triazol-1-yl)-ethan-1-ol] | > 64 µg/mL | 32 µg/mL (≈ 91.8 µM) | 32 µg/mL (≈ 91.8 µM) | 8 µg/mL (≈ 22.9 µM) | better antimycotic action than the compounds (A) and (B) | – | good to very good action | +++++ (very good action = 90% surviving on the 6th day p.i.) | > 80%
5 | OC(Cn1cncn1)(c1ccc(Cl)cc1)C1(n2cnc(Cl)n2)CC1 (stereo not shown) [Example 4, 1-(4-Chlorophenyl)-1-[1-(3-chloro-1,2,4-triazol-1-yl)-cyclopropyl]-2-(1,2,4-triazol-1-yl)-ethan-1-ol] | > 64 µg/mL | 32 µg/mL (≈ 87.6 µM) | 8 µg/mL (≈ 21.9 µM) | 4 µg/mL (≈ 11 µM) | better antimycotic action than the compounds (A) and (B) | – | good to very good action | +++++ (very good action = 90% surviving on the 6th day p.i.) | > 80%
6 | OC(Cn1cncn1)(Cn1cncn1)c1ccccc1 [(B), reference compound] | > 64 µg/mL | > 64 µg/mL | 64 µg/mL (≈ 237 µM) | 64 µg/mL (≈ 237 µM) | – | – | – | – | –

The next lines start with results.

Row | MIC (Torulopsis glabrata) | MIC (Aspergillus fumigatus) | MIC (Candida albicans) | MIC (Trichophyton mentagr.) | Compound | antimycotic action compared with compounds (A) and (B) known from the prior art [1] | action in guinea-pig trichophytosis, in words [2] | action in mouse candidosis, in words (Candida) | Action (oral) in mouse candidosis (Candida) | surviving on the 6th day p.i. (Candida)
7 | > 64 µg/mL | 16 µg/mL (≈ 43.6 µM) | 32 µg/mL (≈ 87.3 µM) | 16 µg/mL (≈ 43.6 µM) | OC(Cn1cncn1)(c1ccc(F)cc1F)C1(n2cnc(Cl)n2)CC1 (stereo not shown) [Example 10, 1-[1-(3-Chloro-1,2,4-triazol-1-yl)-cyclopropyl]-1-(2,4-difluorophenyl)-2-(1,2,4-triazol-1-yl)-ethan-1-ol] | better antimycotic action than the compounds (A) and (B) | good action | good to very good action | +++++ (very good action = 90% surviving on the 6th day p.i.) | > 80%
8 | > 64 µg/mL | 64 µg/mL (≈ 175 µM) | 16 µg/mL (≈ 43.6 µM) | 16 µg/mL (≈ 43.6 µM) | OC(Cn1cncn1)(c1ccc(F)c(F)c1)C1(n2cnc(Cl)n2)CC1 (stereo not shown) [Example 11, 1-[1-(3-Chloro-1,2,4-triazol-1-yl)-cyclopropyl]-1-(3,4-difluorophenyl)-2-(1,2,4-triazol-1-yl)-ethan-1-ol] | better antimycotic action than the compounds (A) and (B) | good action | good to very good action | +++++ (very good action = 90% surviving on the 6th day p.i.) | > 80%
9 | 16 µg/mL (≈ 39.3 µM) | 16 µg/mL (≈ 39.3 µM) | 32 µg/mL (≈ 78.6 µM) | 4 µg/mL (≈ 9.83 µM) | OC(Cn1cncn1)(c1ccc(-c2ccccc2)cc1)C1(n2cnc(Cl)n2)CC1 (stereo not shown) [Example 9, 1-(4-Biphenyl)-1-[1-(3-chloro-1,2,4-triazol-1-yl)-cyclopropyl]-2-(1,2,4-triazol-1-yl)-ethan-1-ol] | better antimycotic action than the compounds (A) and (B) | – | – | – | –
